Target: T1, Triggering receptor expressed on myeloid cells 2 (Homo sapiens, UniProt Q9NZC2)
T1 sequence (Q9NZC2 whole entry): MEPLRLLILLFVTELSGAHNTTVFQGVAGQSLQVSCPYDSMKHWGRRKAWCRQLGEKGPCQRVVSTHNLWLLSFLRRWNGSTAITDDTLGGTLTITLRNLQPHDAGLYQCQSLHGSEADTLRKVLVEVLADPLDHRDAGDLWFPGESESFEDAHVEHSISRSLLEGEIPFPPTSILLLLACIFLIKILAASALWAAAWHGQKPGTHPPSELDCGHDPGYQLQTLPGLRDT
Assay: Agonist activity at human TREM2 expressed in HEK cells co-expressing human DAP12 assessed as increase in Syk phosphorylation incubated for 30 mins by AlphaLISA assay
Type: cell-based

COc1cc([C@H]2CN(c3nc(-c4ccc(Cl)cc4F)c4nc(C(F)(F)F)n(C)c(=O)c4n3)CCO2)ccn1
EC50: 4 nM

Cn1cc([C@H]2CN(c3nc(-c4ccc(Cl)cc4F)c4nc(C(F)F)n(C)c(=O)c4n3)CCO2)cn1
EC50: 5 nM

Cc1cc([C@@H]2CN(c3nc(-c4ccc(Cl)cc4F)c4nc(C(F)F)n(C)c(=O)c4n3)CCO2)ccn1
EC50: 1 nM

C[C@H]1CN(c2nc(-c3ccc(Cl)cc3F)c3nc(C(F)(F)F)n(C)c(=O)c3n2)C[C@@H](c2cnn(C3CC3)c2)O1
EC50: 2 nM

Cc1cc([C@@H]2CN(c3cc4c(=O)n(C)c(C(F)F)nc4c(-c4ccc(Cl)cc4F)n3)CCO2)ccn1
EC50: 3 nM

Cc1cc(C2CN(c3nc(-c4ccc(Cl)cc4F)c4nc(C(F)F)n(C)c(=O)c4n3)CCO2)ccn1 (stereo unspecified)
EC50: 2 nM

Reference: ChEMBL document CHEMBL6134927, “Novel Pyrido[3,4-d]pyrimidin-4-one and Pyrimido[5,4-d]pyrimidin-4-one Derivatives as TREM2 Agonists for Treating Parkinson's Disease” (ACS Med Chem Lett, 2025)
